Laboratory results from US10517954B2, “Pegylated carfilzomib compounds” (AMGEN INC., priority 2016, dated 2019).

Tested on: Proteasome chymotrypsin-like (CT-L) activity
Test: Proteasome CT-L activity in blood and tissues after i.v. dosing (FIG. 3)
Type: in vivo, mice (Balb/c)
Details: i.v. bolus; blood, adrenal gland, heart and liver, in mice
Method: Carfilzomib standard was formulated in an aqueous solution of 10% (w/v)sulfobutylether-β-cyclodextrin and 10 mmol/L sodium citrate (pH 3.5) for administration (5 mg/kg). At selected time points after i.v. drug administration, tissue samples (adrenal, heart, liver and bone marrow) were collected. Whole blood was collected by cardiac puncture into tubes containing sodium heparin.
Approximately 0.4 mL of whole blood is collected using either EDTA microcentrifuged tubes. Samples are immediately placed on ice and spun at maximum speed for 2 minutes in a microcentrifuge at room temperature (RT). Cell pellets are stored on wet ice. Whole blood cell pellets are resuspended in 1 ml of phosphate buffered saline (PBS) and centrifuged at max speed at 4° C. Supernatants are removed and the pellets are washed a second time with PBS. Samples are resuspended in 2 volumes of lysis buffer (20 mM Tris, pH 8.0, 5 mM EDTA) then frozen and stored at −80° C. until analysis. […]
All samples were thawed on ice. […] These samples were then ready for assaying, or they may be frozen at −80° C. […] These samples were then ready for assaying, or they may be frozen at −80° C. […] The protein concentration for each sample was measured by Bradford assay. Proteasome chymotrypsin-like (CT-L) activity was quantitated by monitoring the release of free AMC from the fluorogenic peptide Suc-Leu-Leu-Val-Tyr-AMC (BostonBiochem).

## 4-(4-Acetoxy-3-((1-(PEG20K-4-Arm)-1H-1,2,3-triazol-4-yl)methoxy)benzyl)-4-((4S,7S,10S,13S)-10-benzyl-7-isobutyl-15-methyl-13-((R)-2-methyloxirane-2-carbonyl)-2,5,8,11-tetraoxo-4-phenethyl-3,6,9,12-tetraazahexadecyl)morpholin-4-ium methanesulfonate [Example 1]
  CT-L activity versus standard carfilzomib: comparable
